Test results: article PMC11984905, “Chiral Switch of Gadopiclenol: New Standards in MRI Probes” (Advanced Science, 2025)
Where “and” joins values, the source holds several entries; their conditions need not be identical. Equal values may be shown once. Marks after values point to notes of the source that are not given here.

Experiments:
Assay type in all cases: physicochemical
[1] = 1H NMRD profiles and 17O NMR relaxometry in water; conditions: for ^298K r 1 [1.5 T] / r 1 ^310K [1.5 T]: water; for ER / q: fixed in the fitting procedure; for q: number of coordinated water molecules; for τ M1: residence time of coordinated water 1, 298 K; for τ M2: residence time of coordinated water 2, 298 K; for ^SS q: second-sphere water molecules at 3.6 Å; for ^298K r 1 [1.5 T] / ^SS q: 298 K
Experimental: The magnetic‐field dependence of the longitudinal relaxation rate of water protons (^1H NMRD) were measured in aqueous solution by using a variable field relaxometer equipped with an HTS‐110 3T Metrology Cryogen‐free Superconducting Magnet (Mede, Italy), operating in the overall range of proton Larmor frequencies of 20–120 MHz (0.47–3.00 T). The measurements were performed using the standard inversion recovery sequence (20 experiments, 3 scans) with a 90° pulse width of 3.5 µs. The temperature was controlled with a Stelar VTC‐91 heater airflow. Additional points in the 0.01–10 MHz frequency range were collected on a Fast‐Field Cycling (FFC) Stelar SmarTracer Relaxometer. T 1 values at 500 MHz were collected on a Bruker Avance III NMR spectrometer operating at 11.7 T. The concentration of Gd^3+ in the solutions was determined by using bulk magnetic susceptibility (BMS) shift measurements performed at 11.7 T. For the measurements in the biological fluid, lyophilized plasma matrix (Siemens Healthcare) was added to 1 mL of [Gd(ent‐L2)] (1.0 mM) or Seronorm (Sero) was solubilized in 5 mL [Gd(ent‐L2)] (1.0 mM) solution. ^1H NMRD of the final solution was measured at 310 K.
The spectra were acquired on a Bruker Avance III spectrometer (11.7 T) using a 5 mm probe under temperature control. An aqueous solution of the complexes ([GdL] = 10–15 mM) was enriched to ca. 2.0% of the ^17O isotope (Cambridge Isotope). The transverse relaxation rates (R 2) were measured as a function of temperature in the 278−350 K range. The simultaneous fit of ^1H NMRD and ^17O NMR profiles data was performed using the Micromath Scientist software (version 2.0, Salt Lake City, UT, USA).

[2] = Protonation constants of the ligands (pH-potentiometry); conditions: 0.15 M NaCl, 25 °C; for ΣlogKi^H: total basicity
Experimental: (§1) The protonation constants of ligands, the stability and protonation constants of Ca(II)‐ and Zn(II)‐complexes formed with rac‐L1, ent‐L1, rac‐L2, and ent‐L2 ligands were determined by pH‐potentiometric titration. The metal‐to‐ligand concentration ratio was 1:1 (the concentration of the ligand was generally 0.002 M). The protonation constants of the Cu(II)‐ and Gd(III)‐complexes were determined using pH‐potentiometry by titrating the pre‐prepared complexes from pH 2.0 to 12.0 with 0.2 M NaOH. The stability constants of the Gd(III)‐complexes with rac‐L1 and ent‐L1 ligands were determined by the “out‐of‐cell” technique because of their slow formation reaction. The pH range of the complexation equilibria and the time needed to reach the equilibria were determined by relaxometry. Eight–eight Gd(III) – rac‐L1 and Gd(III) – ent‐L1 samples were prepared, with pH values in the range of 1.7–3.0 at equilibrium ([Gd^3+] = [L] = 0.002 M). The samples were kept at 25 °C for 6 weeks to reach equilibrium. For the calculation of the stability constants of the [Gd(rac‐L1)]^3− and [Gd(ent‐L1)]^3− complexes, besides the protonation constants of ligands and the Gd(III) complexes, the stability constants of the di‐protonated [^*Gd(H2 rac‐L1)]^− and [^*Gd(H2 […])]^− out‐of‐cage complexes (considered as intermediates) was also used as fixed values, which were calculated from the pH‐potentiometric titration curve of the Gd(III) – rac‐L1 and Gd(III) – ent‐L1 system obtained in the pH range of 1.7–7.0.
(§2) For the pH measurements and titrations, the Metrohm 888 Titrando titration workstation Metrohm‐6.0234.110 combined electrode was used. Equilibrium measurements were carried out at a constant ionic strength (0.15 M NaCl) in 6 mL samples at 25 °C. The solutions were stirred, and N2 was bubbled through them. The titrations were made in the pH range 1.7–12.0. KH‐Phthalate (pH 4.005) and borax (pH 9.177) buffers were used to calibrate the pH meter. For the calculation of [H^+] from the measured pH values, the method proposed by Irving et al. was used as follows.^[ [46] ^] A 0.01M HCl solution was titrated with standardized NaOH solution at 0.15 M NaCl ionic strength. The differences (A) between the measured (pHread) and calculated pH (‐log[H^+]) values were used to obtain the equilibrium H^+ concentration from the pH values measured in the titration experiments (A = 0.02). For the equilibrium calculations, the stoichiometric water ionic product (pK w) was also needed in order to calculate [OH^−] values under basic conditions. The VNaOH – pHread data pairs of the HCl – NaOH titration obtained in the pH range 10.5–12.0 were used to calculate the pK w value (pK w = 13.83).
The protonation constants of ligands, defined by Equation (S1), were determined by pH-potentiometry.
where i=1, 2…7. Standard deviations (3σ) are shown in parentheses. In Table S16, the logKi^H values of rac-L1 and rac-L2 can be regarded as the weighted average of the given protonation constant characterizing the basicity of the related protonation site in the different stereoisomers.

[3] = Stability and protonation constants of Ca(II)-complexes (pH-potentiometry); conditions: 0.15 M NaCl, 25 °C
Experimental: as §1, §2
(§3) The stability and protonation constants of Ca(II)-, Zn(II)-, Cu(II)- and Gd(III)-complexes of rac-L1, ent-L1, rac-L2 and ent-L2, defined by Equations (S2) and (S3), were investigated by pH-potentiometry, spectrophotometry and ^1H NMR relaxometry at 25 °C in 0.15 M NaCl solution.
(§4) where i=0, 1, 2,…5. The KML and KMHiL values characterizing the formation of Ca(II)-, Zn(II)-, Cu(II)- and Gd(III)-complexes with rac-L1, ent-L1, rac-L2 and ent-L2 ligands have been calculated from the pH-potentiometric titration data obtained at 1:1 metal to ligand concentration ratios. In calculating the equilibrium constants, the best fitting of the mL NaOH – pH data has been obtained by assuming the formation of ML, MHL, MH2L, MH3L, MH4L, MH5L and MLH-1 species. The formation of the deprotonated [GdLH-1]^- complexes with rac-L2 and ent-L2 ligands takes place at pH>9.0, as indicated by the base consumption in the titration curves. This deprotonation of the Gd(III)-complexes occurs on the inner-sphere water molecule.

[4] = Stability and protonation constants of Zn(II)-complexes (pH-potentiometry); conditions: 0.15 M NaCl, 25 °C
Experimental: as §1, §2, §3, §4

| τ R ([1]; Table 2) [ps] | τ R ([1]; Table S20, 298 K) [ps] | ER [1] | q [1] | τ M1 [1] [ns] | τ M2 [1] [ns] | ^SS q [1] | logK1^H [2] | logK2^H [2] | logK3^H [2] | logK4^H [2] | logK5^H [2] | logK6^H [2] | ΣlogKi^H [2] | logK CaL [3] | logKCaHL [3] | logK ZnL [4] | logKZnHL [4] | SMILES | ^298K r 1 [1.5 T] [1] [mM⁻¹ s⁻¹] | r 1 ^310K [1.5 T] [1] [mM⁻¹ s⁻¹] | other results |
| --- | --- | --- | --- | --- | --- | --- | --- | --- | --- | --- | --- | --- | --- | --- | --- | --- | --- | --- | --- | --- | --- |
| 96 ± 3 | 96±3 | 22^b) kJ mol^-1 | 2 | 144 ± 4 | 58 ± 5 | 2.5 ± 0.1 |  |  |  |  |  |  |  |  |  |  |  | O=C([O-])CCC(C(=O)[O-])N1CCN(C(CCC(=O)[O-])C(=O)[O-])Cc2cccc(n2)CN(C(CCC(=O)[O-])C(=O)[O-])CC1.[Gd+3] (racemic) [[Gd(ent‐L1)]^3−] | 10.9 | 8.6 | r 1 difference between [Gd(rac-L1)]3− and [Gd(ent-L1)]3− [1]: 18%; q ([1]; listed as [Gd(ent-L1)]^3-): 2^b); ^SS q ([1]; listed as [Gd(ent‐L1)]^3⁻): 2.5 |
| 127 ± 4 | 127±4 | 22^b) kJ mol^-1 | 2 | 155 ± 3 | 77 ± 5 | 4.5 and 4.5 ± 0.2 |  |  |  |  |  |  |  |  |  |  |  | O=C(CCC(C(=O)[O-])N1CCN(C(CCC(=O)NCC(O)CO)C(=O)[O-])Cc2cccc(n2)CN(C(CCC(=O)NCC(O)CO)C(=O)[O-])CC1)NCC(O)CO.[Gd+3] (stereo not drawn) [[Gd(ent‐L2)]] | 16.5 | 12.6 | r 1 higher than [Gd(PCTA)] [1]: 175%; r 1 increase compared to [Gd(DOTA)]− [1]: 309%; relaxivity, times higher than that of currently used GBCAs [1]: 2 to 3 times; q ([1]; listed as [Gd(ent-L2)]): 2^b |
|  |  |  |  |  |  |  | 10.62 (1) | 6.82 (1) | 5.50 (2) | 4.89 (2) | 4.19 (2) | 3.88 (2) | 38.20 | 11.03 (1) | 5.59 (2) | 20.77 (2) | 5.26 (2) | O=C(O)CCC(C(=O)O)N1CCN(C(CCC(=O)O)C(=O)O)Cc2cccc(n2)CN(C(CCC(=O)O)C(=O)O)CC1 (stereo not drawn) [ent‐L1] |  |  | logK7^H [2]: 2.30 (2); logKCaH2L [3]: 5.01 (2); logKCaH3L [3]: 4.74 (2); logKCaH4L [3]: 4.24 (3); logKZnH2L [4]: 4.76 (2); logKZnH3L [4]: 4.18 (2); logKZnH4L [4]: 3.29 (2) |

Second part, the molecule before the results:

| SMILES | τ R ([1]; Table 2) [ps] | τ R ([1]; Table S20, 298 K) [ps] | ER [1] | q [1] | τ M1 [1] [ns] | τ M2 [1] [ns] | ^SS q [1] | logK1^H [2] | logK2^H [2] | logK3^H [2] | logK4^H [2] | logK5^H [2] | logK6^H [2] | ΣlogKi^H [2] | logK CaL [3] | logKCaHL [3] | logK ZnL [4] | logKZnHL [4] | ^298K r 1 [1.5 T] [1] [mM⁻¹ s⁻¹] | r 1 ^310K [1.5 T] [1] [mM⁻¹ s⁻¹] | other results |
| --- | --- | --- | --- | --- | --- | --- | --- | --- | --- | --- | --- | --- | --- | --- | --- | --- | --- | --- | --- | --- | --- |
| O=C(O)CCC(C(=O)O)N1CCN(C(CCC(=O)O)C(=O)O)Cc2cccc(n2)CN(C(CCC(=O)O)C(=O)O)CC1 (racemic) [rac‐L1, 2,2’,2’’-[3,6,9,15-tetraazabicyclo[9.3.1]pentadeca-1(15),11,13-triene-3,6,9-triyl]tripentanedioic acid] |  |  |  |  |  |  |  | 10.58 (1) | 6.99 (1) | 5.50 (1) | 4.82 (1) | 4.23 (1) | 3.65 (1) | 38.11 | 10.10 (1) | 5.72 (1) | 19.54(2) | 5.24 (4) |  |  | logK7^H [2]: 2.34 (2); logKCaH2L [3]: 5.34 (2); logKCaH3L [3]: 4.83 (4); logKCaH4L [3]: 4.45 (2); logKZnH2L [4]: 5.01 (2); logKZnH3L [4]: 3.91 (3); logKZnH4L [4]: 3.88 (3) |
| O=C(CCC(C(=O)O)N1CCN(C(CCC(=O)NCC(O)CO)C(=O)O)Cc2cccc(n2)CN(C(CCC(=O)NCC(O)CO)C(=O)O)CC1)NCC(O)CO (racemic) [rac‐L2] |  |  |  |  |  |  |  | 9.58 (1) | 5.96 (2) | 4.30 (3) | 2.86 (3) |  |  | 22.70 | 7.84 (2) | 4.86 (9) | 18.66 (3) | 3.77 (3) |  |  |  |
| O=C(CCC(C(=O)O)N1CCN(C(CCC(=O)NCC(O)CO)C(=O)O)Cc2cccc(n2)CN(C(CCC(=O)NCC(O)CO)C(=O)O)CC1)NCC(O)CO (stereo not drawn) [ent‐L2] |  |  |  |  |  |  |  | 10.43(1) | 5.95 (1) | 4.08 (1) | 2.05 (2) |  |  | 22.51 | 10.26 (1) | 4.16 (2) | 20.13 (3) | 3.27 (3) |  |  |  |
